In brackets after ≈: the same amount, converted by molar mass. Activity calls are given as the source filed them. The calls are words filed in the database; no cut-off is given here.
What was measured:
Bacillus licheniformis = experiment: Antibacterial activity against Bacillus licheniformis ATCC 12759 assessed as inhibition of bacterial growth by broth microdilution method; type: functional
Klebsiella aerogenes = experiment: Antibacterial activity against Klebsiella aerogenes ATCC35029 assessed as inhibition of bacterial growth by broth microdilution method; type: functional
Enterococcus faecium [1] = experiment: Antibacterial activity against Enterococcus faecium NCTC 7171 assessed as inhibition of bacterial growth by broth microdilution method; type: functional
Clostridioides difficile [2] = experiment: Antibacterial activity against Clostridium difficile 23828 assessed as inhibition of bacterial growth by broth microdilution method; type: functional
Clostridioides difficile [3] = experiment: Antibacterial activity against Clostridium difficile BAA-1803 assessed as inhibition of bacterial growth by broth microdilution method; type: functional
Clostridioides difficile [4] = experiment: Antibacterial activity against Clostridium difficile ATCC 43255 assessed as damage in cell wall at 8 time MIC incubated for 24 hrs by scanning electron microscopy based analysis; type: functional, organism-based
[5] = tested on: Staphylococcus epidermidis; experiment: Antibacterial activity against Staphylococcus epidermidis ATCC 35547 assessed as inhibition of bacterial growth by broth microdilution method; type: functional
[6] = tested on: Staphylococcus haemolyticus; experiment: Antibacterial activity against Staphylococcus haemolyticus ATCC 29970 assessed as inhibition of bacterial growth by broth microdilution method; type: functional
Klebsiella pneumoniae = experiment: Antibacterial activity against Klebsiella pneumoniae ATCC700603 assessed as inhibition of bacterial growth by broth microdilution method; type: functional
Clostridioides difficile [7] = experiment: Antibacterial activity against Clostridium difficile 24531 assessed as inhibition of bacterial growth by broth microdilution method; type: functional
Pseudomonas aeruginosa = experiment: Antibacterial activity against Pseudomonas aeruginosa ATCC27853 assessed as inhibition of bacterial growth by broth microdilution method; type: functional
Bifidobacterium longum = experiment: Antibacterial activity against Bifidobacterium longum HM-846 assessed as inhibition of bacterial growth by broth microdilution method; type: functional
Clostridioides difficile [8] = experiment: Antibacterial activity against Clostridium difficile BAA-1870 assessed as inhibition of bacterial growth by broth microdilution method; type: functional
Escherichia coli = experiment: Antibacterial activity against Escherichia coli ATCC25922 assessed as inhibition of bacterial growth by broth microdilution method; type: functional
Corynebacterium sp. = experiment: Antibacterial activity against Corynebacterium sp. HM-784 assessed as inhibition of bacterial growth by broth microdilution method; type: functional
Enterococcus faecalis [9] = experiment: Antibacterial activity against vancomycin susceptible Enterococcus faecalis 201 assessed as inhibition of bacterial growth by broth microdilution method; type: functional
Enterococcus faecalis [10] = experiment: Antibacterial activity against Enterococcus faecalis ATCC 29212 assessed as inhibition of bacterial growth by broth microdilution method; type: functional
Clostridioides difficile [11] = experiment: Antibacterial activity against Clostridium difficile 26675 assessed as inhibition of bacterial growth by broth microdilution method; type: functional
Enterococcus faecium [12] = experiment: Antibacterial activity against vancomycin resistant Enterococcus faecium 106 assessed as inhibition of bacterial growth by broth microdilution method; type: functional
Staphylococcus aureus [13] = experiment: Antibacterial activity against vancomycin-resistant Staphylococcus aureus clinical isolate 1 assessed as inhibition of bacterial growth by broth microdilution method; type: functional
Staphylococcus aureus [14] = experiment: Antibacterial activity against vancomycin-resistant Staphylococcus aureus clinical isolate 2 assessed as inhibition of bacterial growth by broth microdilution method; type: functional
Streptococcus pyogenes = experiment: Antibacterial activity against Streptococcus pyogenes ATCC 49399 assessed as inhibition of bacterial growth by broth microdilution method; type: functional
Enterococcus faecalis [15] = experiment: Antibacterial activity against vancomycin resistant Enterococcus faecalis 99 assessed as inhibition of bacterial growth by broth microdilution method; type: functional
Acinetobacter baumannii = experiment: Antibacterial activity against Acinetobacter baumannii ATCC17961 assessed as inhibition of bacterial growth by broth microdilution method; type: functional
Bacillus cereus = experiment: Antibacterial activity against Bacillus cereus ATCC 13061 assessed as inhibition of bacterial growth by broth microdilution method; type: functional
Enterococcus faecium [16] = experiment: Antibacterial activity against vancomycin susceptible Enterococcus faecium119-39A assessed as inhibition of bacterial growth by broth microdilution method; type: functional; settings: 119-39A
[17] = Selectivity ratio of IC50 for human THP-1 cells to MIC for Clostridium difficile ATCC 43255; type: toxicity
THP-1 = experiment: Cytotoxicity against human THP-1 cells assessed as increase in LDH release incubate for 24 hrs by trypan-blue staining based analysis; type: functional, cell-based; settings: THP-1, 24 h
Clostridioides difficile [18] = experiment: Antibacterial activity against Clostridium difficile ATCC 43255 measured after 48 hrs by two fold serial dilution method; type: functional

Cc1ncc([N+](=O)[O-])n1CCO [METRONIDAZOLE]
MIC (Bacillus licheniformis): > 256 µg/mL | MIC (Klebsiella aerogenes): > 128 µg/mL | MIC (Enterococcus faecium [1]): > 128 µg/mL | MIC (Clostridioides difficile [2]): 0.5 µg/mL (≈ 2.92 µM) | MIC (Clostridioides difficile [3]): 0.5 µg/mL (≈ 2.92 µM) | Activity (Clostridioides difficile [4]): inactive | MIC [5]: > 128 µg/mL | MIC [6]: > 256 µg/mL | MIC (Klebsiella pneumoniae): > 128 µg/mL | MIC (Clostridioides difficile [7]): 0.5 µg/mL (≈ 2.92 µM) | MIC (Pseudomonas aeruginosa): > 128 µg/mL | MIC (Bifidobacterium longum): 0.05 µg/mL (≈ 0.292 µM) | MIC (Clostridioides difficile [8]): 0.5 µg/mL (≈ 2.92 µM) | MIC (Escherichia coli): > 128 µg/mL | MIC (Corynebacterium sp.): > 32 µg/mL | MIC (Enterococcus faecalis [9]): > 256 µg/mL | MIC (Enterococcus faecalis [10]): > 256 µg/mL | MIC (Clostridioides difficile [11]): 4 µg/mL (≈ 23.4 µM) | MIC (Enterococcus faecium [12]): > 16 µg/mL | MIC (Staphylococcus aureus [13]): > 256 µg/mL | MIC (Staphylococcus aureus [14]): > 256 µg/mL | MIC (Streptococcus pyogenes): > 128 µg/mL | MIC (Enterococcus faecalis [15]): > 256 µg/mL | MIC (Acinetobacter baumannii): > 128 µg/mL | MIC (Bacillus cereus): > 256 µg/mL | MIC (Enterococcus faecium [16]): > 16 µg/mL

Oc1ccc(-c2noc(-c3ccc(OC4CCCC4)cc3)n2)cc1
selectivity ratio [17]: 2 | IC50 (THP-1): 8.5 µg/mL (≈ 26.4 µM) | MIC (Clostridioides difficile [18]): 4 µg/mL (≈ 12.4 µM)

O=[N+]([O-])c1c[nH]nc1-c1nc(-c2ccc(Oc3ccc(I)cc3)cc2)no1
selectivity ratio [17]: 25 | IC50 (THP-1): 100 µg/mL (≈ 210 µM) | MIC (Clostridioides difficile [18]): 4 µg/mL (≈ 8.42 µM)

O=[N+]([O-])c1ccccc1Oc1ccc(-c2noc(-c3ccc(O)cc3)n2)cc1
selectivity ratio [17]: 3 | IC50 (THP-1): 16 µg/mL (≈ 42.6 µM) | MIC (Clostridioides difficile [18]): 4 µg/mL (≈ 10.7 µM)

Oc1ccc(-c2nc(-c3ccc(Oc4ccc(C(F)(F)F)cc4)cc3)no2)cc1
selectivity ratio [17]: 9 | IC50 (THP-1): 17 µg/mL (≈ 42.7 µM) | MIC (Clostridioides difficile [18]): 2 µg/mL (≈ 5.02 µM)

O=[N+]([O-])c1c[nH]nc1-c1nc(-c2ccc(OC(F)(F)F)cc2)no1
selectivity ratio [17]: 6 | IC50 (THP-1): 25 µg/mL (≈ 73.3 µM) | MIC (Clostridioides difficile [18]): 4 µg/mL (≈ 11.7 µM)

Cl.NCc1ccc(-c2nc(-c3ccc(Oc4ccc(C(F)(F)F)cc4)cc3)no2)cc1
selectivity ratio [17]: 1 | MIC (Clostridioides difficile [18]): 4 µg/mL

O=[N+]([O-])c1c[nH]nc1-c1nc(-c2ccc3oc4ccccc4c3c2)no1
selectivity ratio [17]: 2 | MIC (Clostridioides difficile [18]): 4 µg/mL (≈ 11.5 µM)

Oc1ccc(-c2nc(-c3ccc(Oc4ccccc4)cc3)no2)cc1
selectivity ratio [17]: 8 | IC50 (THP-1): 17 µg/mL (≈ 51.5 µM) | MIC (Clostridioides difficile [18]): 2 µg/mL (≈ 6.05 µM)

Oc1ccc(-c2nc(-c3ccc(Oc4ccc(C(F)(F)F)cc4)cc3)no2)cc1F
selectivity ratio [17]: 1 | IC50 (THP-1): 5.2 µg/mL (≈ 12.5 µM) | MIC (Clostridioides difficile [18]): 4 µg/mL (≈ 9.61 µM)

O=[N+]([O-])c1c[nH]nc1-c1nc(-c2ccc(Oc3ccc(C(F)(F)F)cc3)cc2)no1
selectivity ratio [17]: 5 | IC50 (THP-1): 21 µg/mL (≈ 50.3 µM) | MIC (Clostridioides difficile [18]): 4 µg/mL (≈ 9.59 µM)

Oc1ccc(-c2nc(-c3ccc(Oc4cccc(I)c4)cc3)no2)cc1
selectivity ratio [17]: 4 | IC50 (THP-1): 17 µg/mL (≈ 37.3 µM)

Oc1c(F)cc(-c2nc(-c3ccc(Oc4ccc(C(F)(F)F)cc4)cc3)no2)cc1F
selectivity ratio [17]: 4 | IC50 (THP-1): 18 µg/mL (≈ 41.4 µM)

Oc1ccc(Oc2ccc(-c3noc(-c4ccc(O)cc4)n3)cc2)cc1
MIC (Clostridioides difficile [18]): 64 µg/mL (≈ 185 µM)

Oc1ccc(/C=C/c2nc(-c3ccc(OC4CCCC4)cc3)no2)cc1
MIC (Clostridioides difficile [18]): 64 µg/mL (≈ 184 µM)

Oc1ccc(-c2cc(-c3ccc(Oc4ccccc4)cc3)no2)cc1
MIC (Clostridioides difficile [18]): > 128 µg/mL

Oc1ccc(-c2nc(-c3ccc4c(c3)OCO4)no2)cc1
MIC (Clostridioides difficile [18]): > 128 µg/mL

FC(F)(F)Oc1ccc(-c2noc(-c3ccc4[nH]ccc4c3)n2)cc1
MIC (Clostridioides difficile [18]): > 128 µg/mL

CCCOc1ccc(-c2noc(-c3ccc(O)cc3)n2)cc1
MIC (Clostridioides difficile [18]): > 128 µg/mL

Nc1cncc(-c2nc(-c3ccc(Oc4ccc(C(F)(F)F)cc4)cc3)no2)c1
MIC (Clostridioides difficile [18]): > 128 µg/mL

Nc1cc(Oc2ccccc2)ccc1-c1noc(-c2ccc(O)cc2)n1
MIC (Clostridioides difficile [18]): > 128 µg/mL

O=C(Nc1c[nH]nc1-c1nc(-c2ccc(Oc3ccc(C(F)(F)F)cc3)cc2)no1)c1ccccn1
MIC (Clostridioides difficile [18]): > 128 µg/mL

COc1ccc(-c2nc(-c3ccc(Oc4ccc(C(F)(F)F)cc4)cc3)no2)cc1[N+](=O)[O-]
MIC (Clostridioides difficile [18]): > 128 µg/mL

CCC(C)Nc1c[nH]nc1-c1nc(-c2ccc(Oc3ccc(C(F)(F)F)cc3)cc2)no1 (stereo not given)
MIC (Clostridioides difficile [18]): > 128 µg/mL

COC(OC)c1ccc(-c2noc(-c3ccc(O)cc3)n2)cc1
MIC (Clostridioides difficile [18]): > 128 µg/mL

O=[N+]([O-])c1cc(-c2nc(-c3ccc(Oc4ccc(C(F)(F)F)cc4)cc3)no2)cnc1O
selectivity ratio [17]: 19 | IC50 (THP-1): 37 µg/mL (≈ 83.3 µM) | MIC (Clostridioides difficile [18]): 2 µg/mL (≈ 4.5 µM)

C#CCCOc1ccc(-c2noc(-c3ccc(O)cc3)n2)cc1
MIC (Clostridioides difficile [18]): > 128 µg/mL

FC(F)(F)c1ccc(Oc2ccc(-c3noc(-c4cn[nH]n4)n3)cc2)cc1
MIC (Clostridioides difficile [18]): > 128 µg/mL

Oc1ccc(-c2nc(-c3ccc4oc5ccccc5c4c3)no2)cc1
MIC (Clostridioides difficile [18]): > 128 µg/mL

C#CCOc1ccc(-c2noc(-c3ccc(O)cc3)n2)cc1
MIC (Clostridioides difficile [18]): 128 µg/mL (≈ 438 µM)

O=C1C[C@@H](c2nc(-c3ccc(Oc4ccc(C(F)(F)F)cc4)cc3)no2)CN1
MIC (Clostridioides difficile [18]): > 128 µg/mL

FC(F)(F)c1ccc(Oc2ccc(-c3noc(-c4n[nH]cc4NC4CCCCC4)n3)cc2)cc1
MIC (Clostridioides difficile [18]): > 128 µg/mL

Oc1ccc(-c2nc(-c3ccc(OC4CCCCC4Br)cc3)no2)cc1 (stereo not given)
selectivity ratio [17]: 4 | IC50 (THP-1): 8.4 µg/mL (≈ 20.2 µM) | MIC (Clostridioides difficile [18]): 2 µg/mL (≈ 4.82 µM)

Oc1nc(-c2ccc(OC3CCCC3)cc2)no1
MIC (Clostridioides difficile [18]): 64 µg/mL (≈ 260 µM)

COc1ccc(-c2nc(-c3ccc(Oc4ccc(C(F)(F)F)cc4)cc3)no2)cc1OC
MIC (Clostridioides difficile [18]): > 128 µg/mL

CC(C)S(=O)(=O)Oc1ccc(-c2noc(-c3ccc(O)cc3)n2)cc1
MIC (Clostridioides difficile [18]): > 128 µg/mL
